PubChem BioAssay (NCI)
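Test compounds were applied to cells in 96-well plates for 48 hours at 5 doses. GI50: concentration for 50% inhibition of growth. TGI: concentration producing complete growth inhibition.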

How the values were obtained:
Assay in all cases: growth of human tumour cells (NCI), 48 h
[1] = tested on: TK-10 renal
[2] = tested on: HOP-92 NSCLC
[3] = tested on: SNB-19 CNS
[4] = tested on: T-47D breast
[5] = tested on: SF-268 CNS
[6] = tested on: UACC-62 melanoma
[7] = tested on: HOP-62 NSCLC
[8] = tested on: EKVX NSCLC
[9] = tested on: SW-620 colon
[10] = tested on: OVCAR-5 ovarian

Compound | GI50 [1] [µM] | TGI [1] [µM] | GI50 [2] [µM] | TGI [2] [µM] | GI50 [3] [µM] | TGI [3] [µM] | GI50 [4] [µM] | TGI [4] [µM] | GI50 [5] [µM] | TGI [5] [µM] | GI50 [6] [µM] | TGI [6] [µM] | GI50 [7] [µM] | TGI [7] [µM] | GI50 [8] [µM] | TGI [8] [µM] | GI50 [9] [µM] | TGI [9] [µM] | TGI [10] [µM] | GI50 [10] [µM]
CC(C)(C)OC(=O)NCCCn1c2c(c3ccccc3c1=O)C(=O)c1ccccc1-2 | 22.3 | 63 | 12.5 | 43.5 | 12.1 | 29.6 | 29.6 | > 100 | 4.56 | 17.7 | 20.4 | 53.6 | 11.8 | 31.3 | 38.9 | > 100 | > 100 | > 100 | – | –
Cc1cccc(C)c1NC(=O)CCc1nc(=S)[nH][nH]1 | – | > 100 | – | > 100 | – | > 100 | – | – | – | > 100 | – | > 100 | – | > 100 | – | > 100 | – | > 100 | > 100 | –
CC(C)OP(=O)(OC(C)C)/C(N)=N/Nc1ccc([N+](=O)[O-])cc1 | – | > 100 | – | > 100 | – | > 100 | – | – | – | > 100 | – | > 100 | – | > 100 | – | > 100 | – | > 100 | > 100 | –
N/N=C1\C(=O)N(c2ccc(Cl)cc2Cl)C(=O)C(=O)C1c1nc2ccccc2o1 (stereo unspecified) | – | > 100 | – | > 100 | – | > 100 | – | – | – | > 100 | – | > 100 | – | > 100 | – | > 100 | – | > 100 | > 100 | –
COc1ccc(CCc2cc(OC)cc(OC)c2)cc1 | – | > 100 | – | > 100 | – | > 100 | – | – | – | > 100 | – | > 100 | – | > 100 | – | > 100 | – | > 67.3 | > 100 | –
O=C([O][Sn]([O]C(=O)c1ccccn1)([c]1ccccc1)[c]1ccccc1)c1ccccn1 | 2.63 | 5.2 | – | – | 15.5 | 29.1 | 1.56 | 3.33 | 2.76 | 9.09 | 4.96 | 17.5 | 16.5 | 31.5 | 13.7 | 26.9 | 1.13 | 2.34 | 30.1 | 16.5
CC(=O)OCC(=O)[C@@]12OC(C)(C)O[C@@H]1C[C@H]1[C@@H]3CC(C=O)=C4C=C(OCCCl)CC[C@]4(C)[C@@]3(F)[C@@H](O)C[C@@]12C | – | > 100 | – | 90.2 | – | > 100 | – | – | – | > 100 | – | > 100 | – | 51.9 | – | > 100 | – | > 100 | > 100 | –
COc1ccc(-c2nc(-c3nc4ccc(F)cc4[nH]3)c3ccccn23)cc1 | 16.1 | 57.9 | 3.67 | 43.8 | 11.2 | 58.6 | 3.55 | 20.8 | 7.2 | 57.8 | 5.41 | 36.1 | 7.41 | 32.3 | – | – | 22.4 | > 100 | > 100 | 45.2
COc1cc2c(cc1OC)C(=O)/C(=C/c1cc(-c3ccc4c(c3)OCO4)n[nH]1)C2 | 1.89 | 3.36 | – | – | 1.55 | 2.96 | 1.31 | 2.72 | 1.63 | 3.37 | 1.63 | 3.04 | 1.53 | 2.96 | – | – | 1.35 | 3.47 | 3 | 1.56
Cc1c(NC(=S)NC(=O)c2ccc([N+](=O)[O-])cc2)c(=O)n(-c2ccccc2)n1C | – | > 100 | – | > 100 | – | > 100 | – | – | – | > 100 | – | > 100 | – | > 100 | – | > 100 | – | > 100 | > 100 | –
CCOC(=O)CCn1ncc(Cl)c(Cl)c1=O | – | 34.5 | – | 26.2 | – | 26.7 | – | – | – | 21.6 | – | 19.2 | – | 39.8 | – | 36 | – | 9.7 | 32.1 | –
O=C(Nc1ccc(-c2nc(-c3cccc(OCCN4CCOCC4)c3)c(-c3ccnc(Br)c3)[nH]2)cc1)c1ccccc1 | 4.48 | > 100 | 2.01 | 8.16 | 2.19 | 9.07 | 2.22 | > 100 | 3.82 | > 100 | 1.91 | 6.19 | – | – | 2.01 | 6.97 | 2.05 | 6.38 | > 100 | 3.73
CC1=NN(C(=O)c2ccc(Cl)cc2)C(=O)/C1=C/c1ccccc1O | – | > 100 | – | > 100 | – | > 100 | – | – | – | > 100 | – | > 100 | – | > 100 | – | > 100 | – | > 100 | > 100 | –
Cn1c(-c2ccc(/C=N/NC(=S)N/N=C/c3ccc(-c4c[n+]5ccsc5n4C)cc3)cc2)c[n+]2ccsc12 | – | > 100 | – | – | – | > 100 | – | > 100 | – | > 100 | – | – | – | > 100 | – | > 100 | – | > 100 | > 100 | –
COc1cc(C)c(C2NC(=O)c3ccccc3N2)cc1C (stereo unspecified) | – | > 100 | – | > 86.5 | – | – | – | > 100 | – | > 100 | – | > 100 | – | > 97.1 | – | > 100 | – | > 100 | > 24.8 | –
O=c1[nH]c2ccccc2n1CCCN1CCC(n2c(=O)[nH]c3cc(Cl)ccc32)CC1 | – | 39.4 | – | 58.2 | – | – | – | 37.3 | – | – | – | 37.2 | – | 36.4 | – | 42.7 | – | 39.2 | 43.1 | –
c1ccc(-c2nc(N3CCOCC3)c3c4c(sc3n2)CCCCCC4)nc1 | 9.28 | 25.5 | 0.622 | 5.05 | 8.36 | 21.6 | 4.46 | 22.7 | 8.82 | 22.6 | 3.44 | 14.3 | 9.53 | 24.6 | – | – | 8.87 | 21.9 | 26.5 | 10.3
COc1cc(NC(=O)CCSc2nc3ccc(C)cc3c(=O)n2Cc2ccccc2)cc(OC)c1OC | 7.43 | 28.4 | 1.9 | 7.99 | 3.17 | 18.5 | 7.04 | > 100 | 4.22 | 49.6 | 15.7 | > 100 | 2.94 | 9.47 | – | – | > 100 | > 100 | > 100 | > 100
